Source: ChEMBL document CHEMBL1795277, “Synthesis of novel pyrazolo[1,5-a]pyrazin-4(5H)-one derivatives and their inhibition against growth of A549 and H322 lung cancer cells” (Bioorg Med Chem Lett, 2011)
The source made the active and inactive calls. The calls are words filed in the database; no cut-off is given here.

Experiments:
Format in all cases: functional, cell-based
A549 [1] = assay: Cytotoxicity against human A549 cells assessed as cell growth inhibition at 40 uM after 48 hrs by SRB assay
NCI-H322 [2] = assay: Cytotoxicity against human NCI-H322 cells assessed as cell growth inhibition at 40 uM after 48 hrs by SRB assay
A549 [3] = assay: Cytotoxicity against human A549 cells assessed as cell growth inhibition after 48 hrs by SRB assay; conditions: for IC50: A549, 48 h
[4] = (§1) Cytotoxicity against human NCI-H322 cells assessed as cell growth inhibition after 48 hrs by SRB assay; conditions: NCI-H322, 48 h
NCI-H322 [5] = assay: as §1
A549 [6] = assay: Cytotoxicity against human A549 cells assessed as reduction of total cell quantity at 40 uM after 48 hrs by inverted microscopic analysis
NCI-H322 [7] = assay: Cytotoxicity against human NCI-H322 cells assessed as reduction of total cell quantity at 40 uM after 48 hrs by inverted microscopic analysis
A549 [8] = assay: Induction morphological changes in human A549 cells at 40 uM after 48 hrs by inverted microscopic analysis
NCI-H322 [9] = assay: Induction morphological changes in human NCI-H322 cells at 40 uM after 48 hrs by inverted microscopic analysis
A549 [10] = assay: Induction necrosis in human A549 cells at 40 uM after 48 hrs by LDH release assay
NCI-H322 [11] = assay: Induction necrosis in human NCI-H322 cells at 40 uM after 48 hrs by LDH release assay

| Structure (SMILES) | growth inhibition (GI) (A549 [1]) | growth inhibition (GI) (NCI-H322 [2]) | growth inhibition (GI) (A549 [3]) | IC50 (A549 [3]) [µM] | IC50 [4] [µM] | growth inhibition (GI) (NCI-H322 [5]) | Activity (A549 [6]) | Activity (NCI-H322 [7]) | Activity (A549 [8]) | Activity (NCI-H322 [9]) | Activity (A549 [10]) | Activity (NCI-H322 [11]) |
| --- | --- | --- | --- | --- | --- | --- | --- | --- | --- | --- | --- | --- |
| COc1ccc(-c2cc3c(=O)n(CCOCCO)c(-c4ccc(OC)cc4)cn3n2)cc1 | Active | Active | Dose-dependent effect | 34.7 | 50.6 | Dose-dependent effect | Active | Active | Active | Active | inactive | inactive |
| COc1ccc(-c2cn3nc(-c4ccccc4)cc3c(=O)n2CCOCCO)cc1 | Active | Active | – | 59 | 74.7 | – | – | – | – | – | – | – |
| O=c1c2cc(-c3ccccc3)nn2cc(-c2ccc(Cl)cc2)n1CCOCCO | Active | Active | – | 62.6 | 91 | – | – | – | – | – | – | – |
| O=c1c2cc(-c3ccccc3)nn2cc(-c2ccccc2)n1CCOCCO | Active | Active | Dose-dependent effect | 41.1 | 45.6 | Dose-dependent effect | Active | Active | Active | Active | inactive | inactive |
| O=c1c2cc(-c3ccc(Cl)cc3)nn2cc(-c2ccccc2)n1CCOCCO | Active | Active | Dose-dependent effect | 24.2 | 29.4 | Dose-dependent effect | Active | Active | Active | Active | inactive | inactive |
| COc1ccc(-c2cc3c(=O)n(CCOCCO)c(-c4ccccc4)cn3n2)cc1 | Active | Active | – | 50.3 | 68.7 | – | – | – | – | – | – | – |
| COc1ccc(-c2cc3c(=O)n(CCOCCO)c(-c4ccc(Cl)cc4)cn3n2)cc1 | Active | Active | – | 49.7 | 76.9 | – | – | – | – | – | – | – |
